Data: patent publication US6130342A, “CYP2D fluorescent assay reagents” (Gentest Corporation, priority 1999, dated 2000)
Values joined by “and” are separate entries in the source; they are usually repeats but may differ in a detail not shown here. Equal values may be shown once.

Columns and labels:
[1] = molecular target: T1, CYP2D6 (Homo sapiens, UniProt P10635); experiment: biochemical
Description: The substrates, compounds of Formula I, were prepared in pH 7.4 potassium phosphate buffer or acetonitrile. […] The 12 wells in a row were used for one test. Wells 1 to 8 contained serial 1:3 dilutions of the inhibitors. Wells 9 and 10 contained no inhibitor and rows 11 and 12 were blanks for background fluorescence (stop solution added before the enzyme). After substrate and inhibitor addition, the plates were prewarmed to 37° C. Incubations were initiated by the addition of prewarmed enzyme and cofactors. […] Data was exported and analyzed using an Excel spreadsheet.

[2] = test system: other human cytochromes P450; details: Crespi et al. 1997; cited from earlier work
[3] = test system: CYP2D6; details: Crespi et al. 1997; cited from earlier work
[4] = test system: panel of human P450 enzymes; experiment: Selectivity in a panel of cDNA-expressed P450 enzymes (dealkylation); assay type: biochemical; details: FIGS. 1, 2, and 3
Description: The selectivity of various P450 isoforms for dealkylation of compounds Ia, Ib and Ic was examined using a panel of commercially available human cDNA-expressed enzymes. A substrate that is selective for a single P450 isoform (substrate is catalytically turned over by a single P450 isoform) is a desirable trait in that its activity may be examined within a heterogeneous mixture of enzymes, for example, in human liver microsomes.
Example Compounds Ia, Ib and Ic. Compounds Ia, Ib and Ic were incubated as described in the examples (1) above except that the enzyme source consisted of one each of several different commercially available, baculovirus/insect cell expressed human cytochrome P450 enzymes (SUPERSOME®, GENTEST Corporation).

[5] = molecular target: T1, CYP2D6; experiment: Enzyme kinetics with cDNA-expressed CYP2D6 (fluorometric); assay type: biochemical; set-up: purchased GENTEST Corporation P217; host or cells: baculovirus/insect cell (SUPERSOMES)
Description: (§1) The evaluation of compounds of Formula I were initially performed by measuring the kinetics of turnover using cDNA-expressed CYP2D6. Vmax and Km values are important for the optimization of the assay conditions and for setting the parameters for inhibition experiments. […] However, compounds Ib and Ic, contain the 4-trifluoromethyl group (R4) which shifts the fluorescent properties of these molecules to longer wavelengths.
(§2) Example Compound Ia. […] The substrate, compound Ia, was prepared in pH 7.4 potassium phosphate buffer (0.1 M). […] The final cofactor concentrations were 0.0082 mM NADP, 0.41 mM glucose-6-phosphate and 0.2 U/ml glucose-6-phosphate dehydrogenase. Final incubation volume was 0.2 ml. […] The activity was quantified by comparing to a standard curve of 3-[2-(N,N-diethylamino)ethyl]-7-hydroxy-4-methylcoumarin hydrochloride. Apparent Km and Vmax values were calculated by non-linear kinetics using SigmaPlot 4.0 software.
(§3) Example Compounds Ib and Ic. The following procedure applies to compounds Ib and Ic as substrates. […] The substrates, Ib and Ic, were prepared in acetonitrile. […] Final incubation volume was 0.2 ml. […] The enzyme activity was quantified by comparing to a standard curve of 3-[2-(N, N-diethyl-N-methylammonium)ethyl]-7-hydroxy-4-trifluoromethylcoumarin iodide (compound IIb) when assaying for metabolism of Ib or 3-[2-(diethylamino)ethyl]-7-hydroxy-4-trifluoromethyl coumarin (compound IIc) when assaying for metabolism of Ic. Apparent Km and Vmax values were calculated by non-linear kinetics using SigmaPlot 4.0 software.

[6] = molecular target: T1, CYP2D6; experiment: CYP2D6 specificity in human liver microsomes with and without quinidine; assay type: biochemical; set-up: purchased GENTEST Corporation P217; host or cells: baculovirus/insect cell (SUPERSOMES); details: for pmole Product with quinidine: 5 uM quinidine; for pmole Product with quinidine / pmole Product: 5.0 uM compound I, 1.0 mg/ml HLM; for pmole Product: without quinidine
Description: Human liver microsomes (HLM) contain several drug (xenobiotic) metabolizing cytochromes P450. When HLM are used as an enzyme source, it is critical that the probe biotransformation be specifically catalyzed by the enzyme of interest.
After incubation, 100 ul of the reaction was added to 1.9 ml of 100 mM Tris (pH 9) and the fluorescence was determined with excitation at 390 nm and emission at 460 nm in a spectrofluorometer. The activity was quantitated by comparing to a standard curve of 3-[2-(diethylamino)ethyl]-7-hydroxy-4-methylcoumarin hydrochloride (Table III): […]

[7] = test system: CYP2D6; details: Kupfer et al. 1984; cited from earlier work
[8] = substrate: CCN(CC)CCc1c(C(F)(F)F)c2ccc(OC)cc2oc1=O; experiment: Enzyme kinetics with cDNA-expressed CYP2D6 (fluorometric); assay type: biochemical; details: cDNA-expressed human CYP2D6, 37° C., pH 7.4
Description: as §1, §2, §3

[9] = substrate: CC[N+](C)(CC)CCc1c(C(F)(F)F)c2ccc(OC)cc2oc1=O; experiment: as above; assay type: biochemical; details: cDNA-expressed human CYP2D6, 37° C., pH 7.4
Description: as §1, §2, §3

[10] = substrate: CC[N+](C)(CC)CCc1c(C)c2ccc(OC)cc2oc1=O; experiment: as above; assay type: biochemical; details: cDNA-expressed human CYP2D6, 37° C., pH 7.4
Description: as §1, §2, §3

[11] = substrate: CCOc1ccc2cc(C#N)c(=O)oc2c1; experiment: as above; assay type: biochemical; details: cDNA-expressed human CYP2D6, 37° C., pH 7.4

**Q.** With `CCc1cccc2cc(C(O)CNC(C)(C)C)oc12` (centres unmarked) [Bufuralol] as the molecule, how does the IC50 [1] read?
**A.** 27 µM and 17 µM and 23.3 µM and 104 µM

**Q.** Which results are given for `CCOc1ccc2cc(C#N)c(=O)oc2c1` [CEC, 3-cyano-7-ethoxycoumarin]?
**A.** metabolism by other human cytochromes P450 [2]: significantly metabolized by other human cytochromes P450; specificity of substrate [2]: poor specificity; enzymatic turnover [3]: low enzymatic turnover

**Q.** Which “catalytic selectivity for dealkylation” value [4] does the source give for `CC[N+](C)(CC)CCc1c(C)c2ccc(OC)cc2oc1=O` [Compound Ia, 3-[2-(N,N-diethyl-N-methylammonium)ethyl]-7-methoxy-4-methylcoumarin] here?
**A.** selective for CYP2D6

**Q.** What about the catalytic turnover [5] of the same molecule?
**A.** highest catalytic turnover

**Q.** What about the “pmole Product with quinidine” value ([6]; 0 min) of the same molecule?
**A.** 0 pmol

**Q.** And the “pmole Product” value ([6]; 0 min)?
**A.** 0 pmol

**Q.** And the “pmole Product with quinidine” value ([6]; 5 min)?
**A.** 0 pmol

**Q.** What about the “pmole Product” value ([6]; 5 min) of the same molecule?
**A.** 3.3 pmol

**Q.** What about the “pmole Product with quinidine” value ([6]; 10 min) of the same molecule?
**A.** 0 pmol

**Q.** What about the “pmole Product” value ([6]; 10 min) of the same molecule?
**A.** 6.3 pmol

**Q.** What about the “pmole Product with quinidine” value ([6]; 15 min) of the same molecule?
**A.** -0.7 pmol

**Q.** What about the “pmole Product” value ([6]; 15 min) of the same molecule?
**A.** 8.5 pmol

**Q.** And the “measurable metabolism / CYP2D6 specificity” value ([6]; human liver microsomes, quinidine inhibition)?
**A.** exclusively due to CYP2D6

**Q.** Which “catalytic selectivity for dealkylation” value [4] does the source give for `CC[N+](C)(CC)CCc1c(C(F)(F)F)c2ccc(OC)cc2oc1=O` [Compound Ib, 3-[2-(N,N-diethyl-N-methylammonium)ethyl]-7-methoxy-4-trifluoromethylcoumarin iodide] here?
**A.** also substrates for other human P450 enzymes

**Q.** And the catalytic turnover [5]?
**A.** lower catalytic turnover compared to compound Ia

**Q.** With `CCN(CC)CCc1c(C(F)(F)F)c2ccc(OC)cc2oc1=O` [Compound Ic, 3-[2-(diethylamino)ethyl]-7-methoxy-4-trifluoromethylcoumarin] as the molecule, how does the “catalytic selectivity for dealkylation” value [4] read?
**A.** also substrates for other human P450 enzymes

**Q.** What about the catalytic turnover [5] of the same molecule?
**A.** lower catalytic turnover compared to compound Ia

**Q.** Which IC50 [1] does the source give for `N=C(N)N1CCc2ccccc2C1` [Debrisoquine] here?
**A.** 29 µM and 20 µM and 10.6 µM and 105 µM

**Q.** For `COc1ccc2c(c1)[C@]13CCCC[C@@H]1[C@H](C2)N(C)CC3` [Dextromethorphan], which “metabolism by CYP2D6” value [7] is on record?
**A.** O-demethylated by CYP2D6

**Q.** Which IC50 [1] does the source give for `NCCC(Oc1ccc(C(F)(F)F)cc1)c1ccccc1` (centres unmarked) [Norfluoxetine] here?
**A.** 8.4 µM and 1.1 µM

B1: CYP2D6 (Homo sapiens) (protein)
chain: MGLEALVPLAVIVAIFLLLVDLMHRRQRWAARYPPGPLPLPGLGNLLHVDFQNTPYCFDQLRRRFGDVFSLQLAWTPVVVLNGLAAVREALVTHGEDTADRPPVPITQILGFGPRSQGVFLARYGPAWREQRRFSVSTLRNLGLGKKSLEQWVTEEAACLCAAFANHSGRPFRPNGLLDKAVSNVIASLTCGRRFEYDDPRFLRLLDLAQEGLKEESGFLREVLNAVPVLLHIPALAGKVLRFQKAFLTQLDELLTEHRMTWDPAQPPRDLTEAFLAEMEKAKGNPESSFNDENLRIVVADLFSAGMVTTSTTLAWGLLLMILHPDVQRRVQQEIDDVIGQVRRPEMGDQAHMPYTTAVIHEVQRFGDIVPLGVTHMTSRDIEVQGFRIPKGTTLITNLSSVLKDEAVWEKPFRFHPEHFLDAQGHFVKPEAFLPFSAGRRACLGEPLARMELFLFFTSLLQHFSFSVPTGQPRPSHHGVFAFLVSPSPYELCAVPR
notes: purchased GENTEST Corporation P217; host or cells: baculovirus/insect cell (SUPERSOMES)
**Q.** Which kcat [8] does the source give for B1 here?
**A.** 0.0033 s⁻¹

**Q.** What about the Km ([8]; other: apparent Km) of the same molecule?
**A.** 3.3 µM

**Q.** What about the kcat [9] of the same molecule?
**A.** 0.00267 s⁻¹

**Q.** And the Km ([9]; other: apparent Km)?
**A.** 0.8 µM

**Q.** And the kcat [10]?
**A.** 0.0167 s⁻¹

**Q.** And the kcat [11]?
**A.** 0.000283 s⁻¹

**Q.** And the Km ([11]; other: apparent Km)?
**A.** 67 µM
